How the values were obtained:
Type in all cases: functional
Mus musculus [1] = test: Antiinflammatory activity against TPA-induced ear edema in BALB/c mouse assessed as weight of ear punches at 5 mM administered topically for 15 mins prior to TPA challenge and measured after 3 hrs (reference value: 8.3 +/- 0.1 mg)
Mus musculus [2] = test: Antiinflammatory activity against TPA-induced ear edema in BALB/c mouse assessed as weight of ear punches at 5 mM administered topically for 15 mins prior to TPA challenge and measured after 6 hrs (reference value: 12.5 +/- 0.3 mg)
Mus musculus [3] = test: Antiinflammatory activity against TPA-induced ear edema in BALB/c mouse assessed as weight of ear punches at 5 mM administered topically for 15 mins prior to TPA challenge and measured after 12 hrs (reference value: 12.4 +/- 0.1 mg)
Mus musculus [4] = test: Antiinflammatory activity against TPA-induced ear edema in BALB/c mouse assessed as weight of ear punches at 5 mM administered topically for 15 mins prior to TPA challenge and measured after 24 hrs (reference value: 12.1 +/- 0.2 mg)
Mus musculus [5] = test: Antiinflammatory activity against TPA-induced ear edema in BALB/c mouse assessed as weight of ear punches at 5 mM administered topically for 15 mins prior to TPA challenge and measured after 48 hrs (reference value: 11.4 +/- 0.3 mg)

SMILES: C[C@]12C=CC(=O)C=C1CC[C@@H]1[C@@H]2[C@@H](O)C[C@@]2(C)[C@H]1CC[C@]2(O)C(=O)CO [PREDNISOLONE]
- Activity (Mus musculus [1]): 5.4 mg
- Activity (Mus musculus [2]): 5.6 mg
- Activity (Mus musculus [3]): 5.7 mg
- Activity (Mus musculus [4]): 5.6 mg
- Activity (Mus musculus [5]): 5.6 mg

— ChEMBL document CHEMBL4257551, “Glycyrrhizic acid from licorice down-regulates inflammatory responses via blocking MAPK and PI3K/Akt-dependent NF-κB signalling pathways in TPA-induced skin inflammation” (2018)
